Test results taken from ChEMBL document CHEMBL5291721, “A preclinical secondary pharmacology resource illuminates target-adverse drug reaction associations of marketed drugs” (Nat Commun, 2023).

Key:
[1] = molecular target: T1, Thromboxane A2 receptor (Homo sapiens, UniProt P21731)
T1 sequence (P21731 whole entry): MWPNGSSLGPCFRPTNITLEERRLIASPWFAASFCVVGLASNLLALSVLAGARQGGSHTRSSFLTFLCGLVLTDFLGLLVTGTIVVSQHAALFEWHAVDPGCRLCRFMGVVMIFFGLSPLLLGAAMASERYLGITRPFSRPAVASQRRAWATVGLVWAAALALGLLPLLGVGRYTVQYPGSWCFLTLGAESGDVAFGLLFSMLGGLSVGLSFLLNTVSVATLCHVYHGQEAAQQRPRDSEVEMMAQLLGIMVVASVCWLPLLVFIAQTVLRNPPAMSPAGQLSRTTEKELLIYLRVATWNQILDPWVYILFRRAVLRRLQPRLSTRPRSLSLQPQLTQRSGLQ

[2] = molecular target: Cannabinoid receptor 1 (Homo sapiens, UniProt P21554)
[3] = molecular target: Histamine H2 receptor (Homo sapiens, UniProt P25021); format: functional, cell-based
[4] = molecular target: 5-hydroxytryptamine receptor 2A (Homo sapiens, UniProt P28223); format: functional, cell-based
[5] = molecular target: T2, Alpha-2B adrenergic receptor (Homo sapiens, UniProt P18089)
T2 sequence (P18089 whole entry): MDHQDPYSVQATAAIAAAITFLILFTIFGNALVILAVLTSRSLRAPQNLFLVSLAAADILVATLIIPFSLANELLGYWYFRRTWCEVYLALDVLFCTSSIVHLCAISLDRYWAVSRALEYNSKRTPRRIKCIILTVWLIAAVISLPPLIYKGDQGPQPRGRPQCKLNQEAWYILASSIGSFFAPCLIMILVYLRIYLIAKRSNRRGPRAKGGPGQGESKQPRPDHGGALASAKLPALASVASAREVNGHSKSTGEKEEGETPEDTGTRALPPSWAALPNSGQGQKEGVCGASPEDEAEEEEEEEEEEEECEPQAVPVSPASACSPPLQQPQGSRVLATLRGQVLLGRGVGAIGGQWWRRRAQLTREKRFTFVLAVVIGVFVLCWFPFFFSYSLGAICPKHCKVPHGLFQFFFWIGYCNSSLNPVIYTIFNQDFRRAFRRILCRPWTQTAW

[6] = molecular target: Histamine H3 receptor (Homo sapiens, UniProt Q9Y5N1)
[7] = molecular target: Mu-type opioid receptor (Homo sapiens, UniProt P35372)
[8] = molecular target: T3, Neuropeptide Y receptor type 1 (Homo sapiens, UniProt P25929)
T3 sequence (P25929 whole entry): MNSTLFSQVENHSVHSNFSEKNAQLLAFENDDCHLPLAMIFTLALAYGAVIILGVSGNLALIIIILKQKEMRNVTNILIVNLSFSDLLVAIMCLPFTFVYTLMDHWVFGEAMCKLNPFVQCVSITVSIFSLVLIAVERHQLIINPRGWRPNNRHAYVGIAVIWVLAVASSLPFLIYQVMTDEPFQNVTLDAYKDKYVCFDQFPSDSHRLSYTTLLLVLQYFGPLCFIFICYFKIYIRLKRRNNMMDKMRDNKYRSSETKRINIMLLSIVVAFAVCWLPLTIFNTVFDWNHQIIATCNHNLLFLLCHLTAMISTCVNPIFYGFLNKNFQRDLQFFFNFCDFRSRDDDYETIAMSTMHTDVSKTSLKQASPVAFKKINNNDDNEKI

[9] = molecular target: Vascular endothelial growth factor receptor 2 (Homo sapiens, UniProt P35968); format: functional
[10] = molecular target: Prostaglandin G/H synthase 1 (Homo sapiens, UniProt P23219); format: functional
[11] = molecular target: T4, Estrogen receptor (Homo sapiens, UniProt P03372)
T4 sequence (P03372 whole entry): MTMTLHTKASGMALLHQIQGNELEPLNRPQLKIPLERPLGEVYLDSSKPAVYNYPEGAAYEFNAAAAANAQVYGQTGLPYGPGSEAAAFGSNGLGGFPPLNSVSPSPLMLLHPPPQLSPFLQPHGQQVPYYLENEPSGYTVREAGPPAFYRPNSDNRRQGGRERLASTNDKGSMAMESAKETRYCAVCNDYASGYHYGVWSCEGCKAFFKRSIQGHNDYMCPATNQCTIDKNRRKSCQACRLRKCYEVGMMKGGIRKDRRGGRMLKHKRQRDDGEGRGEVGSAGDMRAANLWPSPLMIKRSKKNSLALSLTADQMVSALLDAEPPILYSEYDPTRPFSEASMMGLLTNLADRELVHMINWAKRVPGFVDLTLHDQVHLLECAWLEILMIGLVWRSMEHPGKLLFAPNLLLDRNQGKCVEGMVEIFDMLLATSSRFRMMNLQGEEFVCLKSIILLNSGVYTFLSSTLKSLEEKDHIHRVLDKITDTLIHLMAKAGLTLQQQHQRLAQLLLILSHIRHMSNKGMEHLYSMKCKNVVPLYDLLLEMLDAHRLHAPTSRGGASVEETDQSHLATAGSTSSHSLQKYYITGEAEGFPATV

[12] = molecular target: T1, Thromboxane A2 receptor; format: functional, cell-based
[13] = molecular target: T5, 5-hydroxytryptamine receptor 1A (Homo sapiens, UniProt P08908)
T5 sequence (P08908 whole entry): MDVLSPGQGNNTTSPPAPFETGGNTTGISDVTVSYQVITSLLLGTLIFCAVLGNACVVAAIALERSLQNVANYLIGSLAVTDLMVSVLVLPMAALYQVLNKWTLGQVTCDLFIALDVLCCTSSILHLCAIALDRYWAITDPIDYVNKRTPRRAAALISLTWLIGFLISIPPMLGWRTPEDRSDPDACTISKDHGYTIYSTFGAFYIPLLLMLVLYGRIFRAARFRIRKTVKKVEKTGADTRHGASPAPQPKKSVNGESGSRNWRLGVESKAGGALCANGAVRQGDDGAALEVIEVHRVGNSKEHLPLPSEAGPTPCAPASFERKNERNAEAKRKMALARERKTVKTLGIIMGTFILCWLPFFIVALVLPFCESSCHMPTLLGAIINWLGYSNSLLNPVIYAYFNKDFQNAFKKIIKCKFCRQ

[14] = molecular target: Sodium-dependent noradrenaline transporter (Homo sapiens, UniProt P23975)
Note: assay procedure not described here.

Chain of Sodium-dependent noradrenaline transporter (P23975 whole entry): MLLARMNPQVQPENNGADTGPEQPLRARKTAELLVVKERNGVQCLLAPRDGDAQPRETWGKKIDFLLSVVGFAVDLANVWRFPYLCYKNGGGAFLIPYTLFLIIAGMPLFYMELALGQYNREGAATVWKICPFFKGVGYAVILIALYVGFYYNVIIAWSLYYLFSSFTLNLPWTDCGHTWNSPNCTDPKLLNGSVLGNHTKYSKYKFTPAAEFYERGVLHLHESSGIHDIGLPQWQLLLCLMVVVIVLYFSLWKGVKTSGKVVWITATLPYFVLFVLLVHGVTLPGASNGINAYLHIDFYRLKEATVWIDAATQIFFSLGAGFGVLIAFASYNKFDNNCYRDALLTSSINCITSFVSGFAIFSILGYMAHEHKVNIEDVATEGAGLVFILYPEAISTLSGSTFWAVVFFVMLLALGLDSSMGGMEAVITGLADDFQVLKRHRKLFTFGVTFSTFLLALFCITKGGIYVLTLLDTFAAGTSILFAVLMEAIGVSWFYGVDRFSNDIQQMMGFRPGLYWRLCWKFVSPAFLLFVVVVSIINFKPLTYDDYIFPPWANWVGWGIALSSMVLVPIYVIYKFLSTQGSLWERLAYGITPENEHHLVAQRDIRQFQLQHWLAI
Chain of Prostaglandin G/H synthase 1 (P23219 whole entry): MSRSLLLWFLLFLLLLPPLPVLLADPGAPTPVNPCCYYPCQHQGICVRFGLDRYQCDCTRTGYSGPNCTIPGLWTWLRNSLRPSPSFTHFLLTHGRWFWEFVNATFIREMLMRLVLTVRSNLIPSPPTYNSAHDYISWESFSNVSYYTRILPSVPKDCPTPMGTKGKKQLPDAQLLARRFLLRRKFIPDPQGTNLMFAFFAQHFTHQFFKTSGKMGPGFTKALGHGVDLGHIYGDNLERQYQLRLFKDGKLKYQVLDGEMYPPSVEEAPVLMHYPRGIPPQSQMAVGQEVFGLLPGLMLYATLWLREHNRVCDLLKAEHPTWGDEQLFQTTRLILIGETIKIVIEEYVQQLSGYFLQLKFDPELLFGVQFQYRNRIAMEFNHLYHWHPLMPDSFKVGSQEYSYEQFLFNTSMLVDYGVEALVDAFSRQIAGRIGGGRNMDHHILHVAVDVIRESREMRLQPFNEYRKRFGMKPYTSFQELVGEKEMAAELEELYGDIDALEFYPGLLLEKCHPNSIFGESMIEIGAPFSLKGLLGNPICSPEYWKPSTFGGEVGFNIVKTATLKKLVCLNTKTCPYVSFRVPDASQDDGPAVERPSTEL
Chain of Mu-type opioid receptor (P35372 whole entry): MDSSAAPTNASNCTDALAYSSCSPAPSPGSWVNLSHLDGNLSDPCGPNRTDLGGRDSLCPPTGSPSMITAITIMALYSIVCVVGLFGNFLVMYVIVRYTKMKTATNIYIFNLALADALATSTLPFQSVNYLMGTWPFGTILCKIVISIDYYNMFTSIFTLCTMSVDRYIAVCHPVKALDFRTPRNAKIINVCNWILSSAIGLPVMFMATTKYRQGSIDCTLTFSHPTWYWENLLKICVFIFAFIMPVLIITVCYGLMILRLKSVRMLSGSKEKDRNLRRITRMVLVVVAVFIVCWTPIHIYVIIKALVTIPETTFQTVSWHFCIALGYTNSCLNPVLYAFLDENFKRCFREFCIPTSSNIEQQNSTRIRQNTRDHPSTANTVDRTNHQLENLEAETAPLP
Chain of Cannabinoid receptor 1 (P21554 whole entry): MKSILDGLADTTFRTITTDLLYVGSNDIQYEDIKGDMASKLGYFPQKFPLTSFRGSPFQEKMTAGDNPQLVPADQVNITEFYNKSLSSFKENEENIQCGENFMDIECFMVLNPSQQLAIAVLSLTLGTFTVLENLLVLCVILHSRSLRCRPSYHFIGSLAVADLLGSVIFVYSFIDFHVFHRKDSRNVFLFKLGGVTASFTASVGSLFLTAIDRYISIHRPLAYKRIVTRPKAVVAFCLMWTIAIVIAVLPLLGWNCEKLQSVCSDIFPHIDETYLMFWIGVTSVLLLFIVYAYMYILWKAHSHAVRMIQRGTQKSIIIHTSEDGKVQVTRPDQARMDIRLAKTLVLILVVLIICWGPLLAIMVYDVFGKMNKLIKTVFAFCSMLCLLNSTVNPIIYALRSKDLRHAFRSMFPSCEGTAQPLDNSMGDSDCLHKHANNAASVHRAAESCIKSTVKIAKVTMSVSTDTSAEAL
Chain of Histamine H3 receptor (Q9Y5N1 whole entry): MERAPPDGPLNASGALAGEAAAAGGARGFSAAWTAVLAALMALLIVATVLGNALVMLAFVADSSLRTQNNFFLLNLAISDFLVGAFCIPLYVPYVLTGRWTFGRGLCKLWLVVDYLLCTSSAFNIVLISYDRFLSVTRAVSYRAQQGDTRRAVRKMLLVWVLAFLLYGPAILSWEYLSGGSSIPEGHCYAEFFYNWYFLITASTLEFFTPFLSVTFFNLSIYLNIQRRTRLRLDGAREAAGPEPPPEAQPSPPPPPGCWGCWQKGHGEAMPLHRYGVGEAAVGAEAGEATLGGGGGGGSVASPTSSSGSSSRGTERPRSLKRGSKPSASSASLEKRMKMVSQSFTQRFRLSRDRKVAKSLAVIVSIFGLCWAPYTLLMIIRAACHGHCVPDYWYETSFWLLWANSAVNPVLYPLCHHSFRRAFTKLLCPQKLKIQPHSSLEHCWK
Chain of Vascular endothelial growth factor receptor 2 (P35968 whole entry): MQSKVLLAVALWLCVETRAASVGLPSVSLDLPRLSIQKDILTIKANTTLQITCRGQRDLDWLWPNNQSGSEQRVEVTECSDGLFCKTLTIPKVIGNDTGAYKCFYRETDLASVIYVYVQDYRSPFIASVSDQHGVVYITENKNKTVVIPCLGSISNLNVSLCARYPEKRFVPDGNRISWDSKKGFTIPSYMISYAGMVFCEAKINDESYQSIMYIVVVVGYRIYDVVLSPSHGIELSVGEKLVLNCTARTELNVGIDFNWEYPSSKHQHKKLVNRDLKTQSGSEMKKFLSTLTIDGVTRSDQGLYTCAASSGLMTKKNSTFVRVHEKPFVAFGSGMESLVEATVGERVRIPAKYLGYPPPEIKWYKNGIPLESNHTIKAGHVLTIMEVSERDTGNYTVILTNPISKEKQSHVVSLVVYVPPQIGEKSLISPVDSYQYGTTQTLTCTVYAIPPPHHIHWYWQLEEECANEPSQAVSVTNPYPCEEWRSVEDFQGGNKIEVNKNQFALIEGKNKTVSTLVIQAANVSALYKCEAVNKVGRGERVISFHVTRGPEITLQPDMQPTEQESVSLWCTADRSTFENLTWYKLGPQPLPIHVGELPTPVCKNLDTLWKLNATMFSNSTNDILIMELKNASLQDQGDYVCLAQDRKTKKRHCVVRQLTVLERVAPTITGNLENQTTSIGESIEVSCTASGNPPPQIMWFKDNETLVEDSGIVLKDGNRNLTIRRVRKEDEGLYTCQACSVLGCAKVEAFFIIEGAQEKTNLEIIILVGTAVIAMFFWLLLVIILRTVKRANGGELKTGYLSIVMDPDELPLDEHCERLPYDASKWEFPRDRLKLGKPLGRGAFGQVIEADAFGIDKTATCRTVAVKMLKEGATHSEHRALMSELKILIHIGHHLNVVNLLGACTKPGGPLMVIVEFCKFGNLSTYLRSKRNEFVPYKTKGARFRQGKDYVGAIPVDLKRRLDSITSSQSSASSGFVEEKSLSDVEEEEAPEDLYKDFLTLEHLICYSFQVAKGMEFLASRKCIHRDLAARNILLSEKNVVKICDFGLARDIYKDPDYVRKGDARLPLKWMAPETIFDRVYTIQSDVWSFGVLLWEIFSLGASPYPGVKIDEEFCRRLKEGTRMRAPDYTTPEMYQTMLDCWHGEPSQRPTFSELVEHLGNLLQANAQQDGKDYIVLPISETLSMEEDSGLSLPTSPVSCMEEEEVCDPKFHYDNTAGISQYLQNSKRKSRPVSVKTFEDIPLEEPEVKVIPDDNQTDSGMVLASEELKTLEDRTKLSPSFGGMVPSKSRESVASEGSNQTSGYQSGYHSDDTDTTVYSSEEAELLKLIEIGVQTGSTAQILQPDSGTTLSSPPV
Chain of 5-hydroxytryptamine receptor 2A (P28223 whole entry): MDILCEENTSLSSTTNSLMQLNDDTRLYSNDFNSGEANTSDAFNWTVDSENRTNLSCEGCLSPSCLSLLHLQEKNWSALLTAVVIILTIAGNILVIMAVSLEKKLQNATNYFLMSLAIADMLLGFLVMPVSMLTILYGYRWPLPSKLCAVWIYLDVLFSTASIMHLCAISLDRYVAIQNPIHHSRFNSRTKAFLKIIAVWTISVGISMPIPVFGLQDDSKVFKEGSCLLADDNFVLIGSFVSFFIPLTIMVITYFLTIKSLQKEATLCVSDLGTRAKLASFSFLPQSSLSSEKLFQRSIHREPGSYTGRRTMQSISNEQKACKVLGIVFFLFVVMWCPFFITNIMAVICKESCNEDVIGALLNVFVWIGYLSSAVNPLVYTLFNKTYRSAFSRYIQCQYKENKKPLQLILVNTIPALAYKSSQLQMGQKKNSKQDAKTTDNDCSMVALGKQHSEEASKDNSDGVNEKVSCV
Chain of Histamine H2 receptor (P25021 whole entry): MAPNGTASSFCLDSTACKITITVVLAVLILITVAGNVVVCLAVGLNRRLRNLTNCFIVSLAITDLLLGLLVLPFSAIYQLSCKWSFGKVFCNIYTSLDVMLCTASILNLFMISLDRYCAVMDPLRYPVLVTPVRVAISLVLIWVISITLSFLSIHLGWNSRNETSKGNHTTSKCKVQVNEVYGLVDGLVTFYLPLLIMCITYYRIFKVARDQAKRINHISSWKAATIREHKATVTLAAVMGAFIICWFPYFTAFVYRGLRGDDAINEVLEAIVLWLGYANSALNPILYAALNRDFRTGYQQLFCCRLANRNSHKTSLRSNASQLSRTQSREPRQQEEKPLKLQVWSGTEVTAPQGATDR

| SMILES | AC50 [1] | AC50 [2] | AC50 [3] | AC50 [4] | AC50 [5] | AC50 [6] | AC50 [7] | AC50 [8] | AC50 [9] | AC50 [10] | AC50 [11] | AC50 [12] | AC50 [13] | AC50 [14] |
| --- | --- | --- | --- | --- | --- | --- | --- | --- | --- | --- | --- | --- | --- | --- |
| C=CC1=C(C(=O)O)N2C(=O)[C@@H](NC(=O)/C(=N\O)c3csc(N)n3)[C@H]2SC1 | > 30 µM | 15.8 µM | > 10 µM | > 30 µM | > 10 µM | > 10 µM | > 30 µM | > 30 µM | – | – | – | – | – | – |
| NCCCCCC(=O)O [AMINOCAPROIC ACID] | > 10 µM | > 10 µM | > 10 µM | – | – | > 10 µM | > 30 µM | > 10 µM | – | – | – | – | – | – |
| CN(C)CCC=C1c2ccccc2CCc2ccccc21 [AMITRIPTYLINE] | > 30 µM | > 10 µM | – | – | – | 24 µM | > 30 µM | > 30 µM | > 30 µM | > 30 µM | > 30 µM | > 30 µM | 0.337 µM | – |
| CC(=O)Oc1ccccc1C(=O)O [ASPIRIN] | > 30 µM | > 10 µM | > 10 µM | – | – | > 30 µM | > 30 µM | > 30 µM | > 30 µM | – | > 30 µM | > 30 µM | > 30 µM | > 30 µM |
| CC(C)NCC(O)COc1ccc(CC(N)=O)cc1 (centres undefined) [ATENOLOL] | > 30 µM | 26 µM | > 30 µM | – | – | > 30 µM | – | > 30 µM | – | – | – | – | – | – |
| CC(C)C[C@H](NC(=O)[C@H](Cc1ccccc1)NC(=O)c1cnccn1)B(O)O [BORTEZOMIB] | > 30 µM | > 30 µM | > 30 µM | > 30 µM | > 30 µM | > 30 µM | – | > 30 µM | – | – | – | – | – | – |
| C[C@H](CS)C(=O)N1CCC[C@H]1C(=O)O [CAPTOPRIL] | – | > 10 µM | > 30 µM | – | – | > 10 µM | > 30 µM | > 30 µM | – | – | – | – | – | – |
| CCN(CC)CCn1c(=O)c(Cc2ccc(OC)cc2)nc2ccccc21 [CAROVERINE] | > 30 µM | > 30 µM | > 30 µM | 9.7 µM | 21 µM | 2.38 µM | – | > 30 µM | – | – | – | – | – | – |
| CN(C)CCCC1(c2ccc(F)cc2)OCc2cc(C#N)ccc21 (centres undefined) [CITALOPRAM] | > 30 µM | > 10 µM | – | – | – | > 10 µM | – | > 30 µM | > 30 µM | > 30 µM | > 30 µM | > 30 µM | – | – |
| COC(=O)CCc1ccc(OCC(O)CNC(C)C)cc1 (centres undefined) [ESMOLOL] | > 30 µM | > 30 µM | > 30 µM | – | – | > 30 µM | – | > 30 µM | – | – | – | – | – | – |
| C[C@]12CCC(=O)C=C1CC[C@H]1[C@@H]3CC[C@](O)(C(=O)CO)[C@@]3(C)C[C@H](O)[C@@]12F [FLUDROCORTISONE] | > 30 µM | > 10 µM | > 10 µM | > 30 µM | > 10 µM | > 10 µM | > 30 µM | > 30 µM | – | – | – | – | – | – |
| NCC1(CC(=O)O)CCCCC1 [GABAPENTIN] | > 30 µM | > 10 µM | > 10 µM | – | – | > 30 µM | > 30 µM | > 30 µM | > 30 µM | > 30 µM | – | > 30 µM | > 30 µM | > 30 µM |
| CCN(CCO)CCCC(C)Nc1ccnc2cc(Cl)ccc12 (centres undefined) [HYDROXYCHLOROQUINE] | > 10 µM | > 10 µM | > 10 µM | – | – | – | > 30 µM | > 10 µM | – | – | – | – | – | – |
| OCCOCCN1CCN(C(c2ccccc2)c2ccc(Cl)cc2)CC1 (centres undefined) [HYDROXYZINE] | > 30 µM | > 10 µM | > 10 µM | 6 µM | 8 µM | > 10 µM | > 30 µM | > 30 µM | – | – | – | – | – | – |
| O=C(c1ccccc1)c1ccc2n1CCC2C(=O)O (centres undefined) [KETOROLAC] | > 10 µM | > 30 µM | > 30 µM | – | – | > 10 µM | > 30 µM | > 10 µM | – | – | – | – | – | – |
| Nc1nnc(-c2cccc(Cl)c2Cl)c(N)n1 [LAMOTRIGINE] | > 30 µM | > 10 µM | > 10 µM | – | – | > 10 µM | > 30 µM | > 30 µM | – | – | – | – | – | – |
| O=C1[C@@H]2[C@H]3CC[C@H](C3)[C@@H]2C(=O)N1C[C@@H]1CCCC[C@H]1CN1CCN(c2nsc3ccccc23)CC1 [LURASIDONE] | – | – | – | – | – | > 30 µM | > 30 µM | – | > 30 µM | > 30 µM | > 30 µM | > 30 µM | – | 24.1 µM |
| CNC1(C)C2CCC(C2)C1(C)C (centres undefined) [MECAMYLAMINE] | > 10 µM | > 10 µM | > 10 µM | > 10 µM | > 10 µM | – | > 30 µM | > 10 µM | – | – | – | – | – | – |
| CCC1(c2ccccc2)C(=O)NCNC1=O [PRIMIDONE] | > 10 µM | > 10 µM | > 10 µM | – | – | – | > 30 µM | > 10 µM | – | – | – | – | – | – |
| CC(=O)SCC(Cc1ccccc1)C(=O)NCC(=O)OCc1ccccc1 (centres undefined) [RACECADOTRIL] | > 30 µM | > 10 µM | > 30 µM | > 30 µM | > 30 µM | > 30 µM | > 30 µM | > 30 µM | – | – | – | – | – | – |
| CCOc1ccccc1OCCN[C@H](C)Cc1ccc(OC)c(S(N)(=O)=O)c1 [TAMSULOSIN] | > 30 µM | > 10 µM | > 10 µM | > 30 µM | 1.9 µM | > 10 µM | 5.3 µM | > 30 µM | – | – | – | – | – | – |
| C[C@H](Cn1cnc2c(N)ncnc21)OCP(=O)(O)O [TENOFOVIR ANHYDROUS] | > 30 µM | > 30 µM | > 30 µM | > 30 µM | > 30 µM | > 30 µM | – | > 30 µM | – | – | – | – | – | – |
| Cc1ccc(C(C)C)c(O)c1 [THYMOL] | – | – | – | – | – | – | – | – | > 30 µM | > 3 µM | > 30 µM | > 30 µM | > 30 µM | 23.3 µM |
